Measured values reported in patent US8927531B2, “Indanyloxydihydrobenzofuranylacetic acids” (Boehringer Ingelheim International GmbH, priority 2013, dated 2015).
pEC50: −log10 of the molar value.

What follows are compounds tested against human GPR40 receptor (Homo sapiens, UniProt O14842) (assay: IP1 accumulation measurements using the IPOne assay system in 1321N1 cells stably expressing human GPR40 receptor). Settings: stimulation 1 h at 37° C.
Format: cell-based
Description: IP1 accumulation measurements using the IPOne assay system—1321N1 cells stably expressing human GPR40 receptor (Euroscreen, Belgium) are seeded 24 h before the assay in white 384-well plates in culture medium containing 10% FCS, 1% Na-Pyruvate and 400 μg/mL G418. IP1 is assayed according to the manufacturer's description (Cisbio Bioassays, France). In brief, the assay is started by substitution of the culture medium by stimulation buffer (Hepes 10 mM, CaCl2 1 mM, MgCl2 0.5 mM, KCl 4.2 mM, NaCl 146 mM, glucose 5.5 mM and LiCl 50 mM, pH 7.4). Cells are stimulated for 1 h at 37° C., 5% CO2 by addition of the compounds that are diluted in stimulation buffer containing LiCl. Assays are stopped by adding HTRF-conjugates (IP1-d2 and Anti-IP1 cryptate Tb) and lysis buffer, provided by the manufacturer. After an incubation time of 1 h at room temperature plates are measured using an EnVision™, Perkin Elmer. The obtained fluorescence ratios at 665/615 […] are then used to calculate the pEC50 values using Assay Explorer 3.3 Software (Accelrys, Inc.) by interpolation using an IP1 reference curve and subsequent sigmoidal curve fitting allowing for a variable hill slope.

Sequence of human GPR40 receptor (O14842 whole entry): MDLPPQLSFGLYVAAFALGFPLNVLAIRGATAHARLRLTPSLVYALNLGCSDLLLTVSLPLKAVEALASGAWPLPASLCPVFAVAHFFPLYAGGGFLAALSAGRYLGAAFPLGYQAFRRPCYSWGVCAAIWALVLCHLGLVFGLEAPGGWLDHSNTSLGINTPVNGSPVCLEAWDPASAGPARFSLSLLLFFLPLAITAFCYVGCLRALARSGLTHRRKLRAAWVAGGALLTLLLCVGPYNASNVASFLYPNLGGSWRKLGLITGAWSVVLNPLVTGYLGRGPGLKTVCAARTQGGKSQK

First: O=C(O)C[C@@H]1COc2cc(O[C@@H]3CCc4c3ccc(C(F)(F)F)c4CN3CC4CCC(C3)O4)ccc21 [Example 24, {(S)-6-[(R)-4-(8-Oxa-3-aza-bicyclo[3.2.1]oct-3-ylmethyl)-5-trifluoromethyl-indan-1-yloxy]-2,3-dihydro-benzofuran-3-yl}-acetic acid]
Second: O=C(O)C[C@@H]1COc2cc(O[C@@H]3CCc4c3ccc(C(F)(F)F)c4CN3CCSCC3)ccc21 [Example 3, {(S)-6-[(R)-4-Thiomorpholin-4-ylmethyl-5-trifluoromethyl-indan-1-yloxy]-2,3-dihydro-benzofuran-3-yl}-acetic acid]
The pEC50 of the first is 0.67 log units lower: 7.85 for the first, 8.52 for the second.

Going from `O=C(O)C[C@@H]1COc2cc(O[C@@H]3CCc4c3ccc(C(F)(F)F)c4CN3CCn4ccnc4C3)ccc21` [Example 27, {(S)-6-[(R)-4-(5,6-Dihydro-8H-imidazo[1,2-a]pyrazin-7-ylmethyl)-5-trifluoromethyl-indan-1-yloxy]-2,3-dihydro-benzofuran-3-yl}-acetic acid] to `O=C(O)C[C@@H]1COc2cc(O[C@@H]3CCc4c3ccc(C(F)(F)F)c4CN3CCn4nccc4C3)ccc21` [Example 33, {(S)-6-[(R)-4-(6,7-Dihydro-pyrazolo[1,5-a]pyrazin-5-ylmethyl)-5-trifluoromethyl-indan-1-yloxy]-2,3-dihydro-benzofuran-3-yl}-acetic acid], the pEC50 rises from 7.77 to 8.70 (0.93 log units).

`O=C(O)C[C@@H]1COc2cc(O[C@@H]3CCc4c3ccc(C(F)(F)F)c4CN3CCc4ncccc4C3)ccc21` [Example 28, {(S)-6-[(R)-4-(7,8-Dihydro-[1,6]naphthyridin-6-ylmethyl)-5-trifluoromethyl-indan-1-yloxy]-2,3-dihydro-benzofuran-3-yl}-acetic acid] and `O=C(O)C[C@@H]1COc2cc(O[C@@H]3CCc4c3ccc(C(F)(F)F)c4CN3CCc4ccccc4C3)ccc21` [Example 29, {(S)-6-[(R)-4-(3,4-Dihydro-isoquinolin-2-ylmethyl)-5-trifluoromethyl-indan-1-yloxy]-2,3-dihydro-benzofuran-3-yl}-acetic acid] are within 0.2 log units of each other in pEC50: 8.40 for the first, 8.52 for the second.

Compared with `CCOC(=O)N1CCN(Cc2c(C(F)(F)F)ccc3c2CC[C@H]3Oc2ccc3c(c2)OC[C@H]3CC(=O)O)CC1` [Example 20, {(S)-6-[(R)-4-(4-Ethoxycarbonyl-piperazin-1-ylmethyl)-5-trifluoromethyl-indan-1-yloxy]-2,3-dihydro-benzofuran-3-yl}-acetic acid], `COC(=O)N1CCN(Cc2c(C(F)(F)F)ccc3c2CC[C@H]3Oc2ccc3c(c2)OC[C@H]3CC(=O)O)CC1` [Example 17, {(S)-6-[(R)-4-(4-Methoxycarbonyl-piperazin-1-ylmethyl)-5-trifluoromethyl-indan-1-yloxy]-2,3-dihydro-benzofuran-3-yl}-acetic acid] is 0.35 log units higher in pEC50: 8.05 for the first, 8.40 for the second.

Going from `O=C(O)C[C@@H]1COc2cc(O[C@@H]3CCc4c3ccc(C(F)(F)F)c4CN3CCC(F)(F)CC3)ccc21` [Example 7, {(S)-6-[(R)-4-(4,4-Difluoro-piperidin-1-ylmethyl)-5-trifluoromethyl-indan-1-yloxy]-2,3-dihydro-benzofuran-3-yl}-acetic acid] to `O=C(O)C[C@@H]1COc2cc(O[C@@H]3CCc4c3ccc(C(F)(F)F)c4CN3CCC4(CC3)CC4)ccc21` [Example 8, {(S)-6-[(R)-4-(6-Aza-spiro[2.5]oct-6-ylmethyl)-5-trifluoromethyl-indan-1-yloxy]-2,3-dihydro-benzofuran-3-yl}-acetic acid], the pEC50 falls from 8.52 to 8.30 (0.22 log units). The first is the more potent here.

`CCC(=O)N1CCN(Cc2c(C(F)(F)F)ccc3c2CC[C@H]3Oc2ccc3c(c2)OC[C@H]3CC(=O)O)CC1` [Example 21, {(S)-6-[(R)-4-(4-Propionyl-piperazin-1-ylmethyl)-5-trifluoromethyl-indan-1-yloxy]-2,3-dihydro-benzofuran-3-yl}-acetic acid] and `CC(=O)N1CCN(Cc2c(C(F)(F)F)ccc3c2CC[C@H]3Oc2ccc3c(c2)OC[C@H]3CC(=O)O)CC1` [Example 16, {(S)-6-[(R)-4-(4-Acetyl-piperazin-1-ylmethyl)-5-trifluoromethyl-indan-1-yloxy]-2,3-dihydro-benzofuran-3-yl}-acetic acid] are within 0.2 log units of each other in pEC50: 7.92 for the first, 7.80 for the second.

`O=C(O)C[C@@H]1COc2cc(O[C@@H]3CCc4c3ccc(C(F)(F)F)c4CN3CCCOCC3)ccc21` [Example 9, {(S)-6-[(R)-[1,4]Oxazepan-4-ylmethyl-5-trifluoromethyl-indan-1-yloxy]-2,3-dihydro-benzofuran-3-yl}-acetic acid] and `O=C(O)C[C@@H]1COc2cc(O[C@@H]3CCc4c3ccc(C(F)(F)F)c4CN3CCOCC3)ccc21` [Example 1, {(S)-6-[(R)-4-Morpholin-4-ylmethyl-5-trifluoromethyl-indan-1-yloxy]-2,3-dihydro-benzofuran-3-yl}-acetic acid] are the same in pEC50: 8.52 for the first, 8.52 for the second.

`O=C(O)C[C@@H]1COc2cc(O[C@@H]3CCc4c3ccc(C(F)(F)F)c4CN3CCCCC3)ccc21` [Example 5, {(S)-6-[(R)-4-Piperidin-1-ylmethyl-5-trifluoromethyl-indan-1-yloxy]-2,3-dihydro-benzofuran-3-yl}-acetic acid] and `O=C(O)C[C@@H]1COc2cc(O[C@@H]3CCc4c3ccc(C(F)(F)F)c4CN3CCCCCC3)ccc21` [Example 19, {(S)-6-[(R)-4-Azepan-1-ylmethyl-5-trifluoromethyl-indan-1-yloxy]-2,3-dihydro-benzofuran-3-yl}-acetic acid] are within 0.2 log units of each other in pEC50: 8.30 for the first, 8.15 for the second.

Compared with `O=C(O)C[C@@H]1COc2cc(O[C@@H]3CCc4c3ccc(C(F)(F)F)c4CN3CCNCC3)ccc21` [Example 15, {(S)-6-[(R)-4-piperazin-1-ylmethyl-5-trifluoromethyl-indan-1-yloxy]-2,3-dihydro-benzofuran-3-yl}-acetic acid], `COC1CCN(Cc2c(C(F)(F)F)ccc3c2CC[C@H]3Oc2ccc3c(c2)OC[C@H]3CC(=O)O)CC1` [Example 10, {(S)-6-[(R)-4-(4-Methoxy-piperidin-1-ylmethyl)-5-trifluoromethyl-indan-1-yloxy]-2,3-dihydro-benzofuran-3-yl}-acetic acid] is 1.97 log units higher in pEC50: 6.33 for the first, 8.30 for the second.

`O=C(O)C[C@@H]1COc2cc(O[C@@H]3CCc4c3ccc(C(F)(F)F)c4CN3CCc4ncsc4C3)ccc21` [Example 30, {(S)-6-[(R)-4-(6,7-Dihydro-thiazolo[5,4-c]pyridin-5-ylmethyl)-5-trifluoromethyl-indan-1-yloxy]-2,3-dihydro-benzofuran-3-yl}-acetic acid] and `Cc1nc2c(s1)CN(Cc1c(C(F)(F)F)ccc3c1CC[C@H]3Oc1ccc3c(c1)OC[C@H]3CC(=O)O)CC2` [Example 6, {(S)-6-[(R)-4-(2-Methyl-4,5,6,7-tetrahydro-thiazolo[5,4-c]pyridin-5-ylmethyl)-5-trifluoromethyl-indan-1-yloxy]-2,3-dihydro-benzofuran-3-yl}-acetic acid] are within 0.2 log units of each other in pEC50: 8.52 for the first, 8.70 for the second.

`O=C(O)C[C@@H]1COc2cc(O[C@@H]3CCc4c3ccc(C(F)(F)F)c4CN3CCc4ccsc4C3)ccc21` [Example 32, {(S)-6-[(R)-4-(4,7-Dihydro-thieno[2,3-c]pyridin-6-ylmethyl)-5-trifluoromethyl-indan-1-yloxy]-2,3-dihydro-benzofuran-3-yl}-acetic acid] and `O=C(O)C[C@@H]1COc2cc(O[C@@H]3CCc4c3ccc(C(F)(F)F)c4CN3CCc4nocc4C3)ccc21` [Example 34, {(S)-6-[(R)-4-(6,7-Dihydro-isoxazolo[4,3-c]pyridin-5-ylmethyl)-5-trifluoromethyl-indan-1-yloxy]-2,3-dihydro-benzofuran-3-yl}-acetic acid] are within 0.2 log units of each other in pEC50: 8.70 for the first, 8.52 for the second.

Going from `O=C(O)C[C@@H]1COc2cc(O[C@@H]3CCc4c3ccc(C(F)(F)F)c4CN3C4CCCC3CC4)ccc21` [Example 25, {(S)-6-[(R)-4-(8-Aza-bicyclo[3.2.1]oct-8-ylmethyl)-5-trifluoromethyl-indan-1-yloxy]-2,3-dihydro-benzofuran-3-yl}-acetic acid] to `CC1(C)CN(Cc2c(C(F)(F)F)ccc3c2CC[C@H]3Oc2ccc3c(c2)OC[C@H]3CC(=O)O)CCO1` [Example 23, {(S)-6-[(R)-4-(2,2-Dimethyl-morpholin-4-ylmethyl)-5-trifluoromethyl-indan-1-yloxy]-2,3-dihydro-benzofuran-3-yl}-acetic acid], the pEC50 rises from 7.82 to 8.15 (0.33 log units). The second is the more potent here.

`Cn1cc2c(n1)CCN(Cc1c(C(F)(F)F)ccc3c1CC[C@H]3Oc1ccc3c(c1)OC[C@H]3CC(=O)O)C2` [Example 31, {(S)-6-[(R)-4-(2-Methyl-2,4,6,7-tetrahydro-pyrazolo[4,3-c]pyridin-5-ylmethyl)-5-trifluoromethyl-indan-1-yloxy]-2,3-dihydro-benzofuran-3-yl}-acetic acid] and `Cc1nc2c(o1)CCN(Cc1c(C(F)(F)F)ccc3c1CC[C@H]3Oc1ccc3c(c1)OC[C@H]3CC(=O)O)C2` [Example 35, {(S)-6-[(R)-4-(2-Methyl-6,7-dihydro-oxazolo[4,5-c]pyridin-5-ylmethyl)-5-trifluoromethyl-indan-1-yloxy]-2,3-dihydro-benzofuran-3-yl}-acetic acid] are within 0.2 log units of each other in pEC50: 8.70 for the first, 8.52 for the second.

In the case of `CC(C)(C)OC(=O)N1CCN(Cc2c(C(F)(F)F)ccc3c2CC[C@H]3Oc2ccc3c(c2)OC[C@H]3CC(=O)O)CC1` [Example 2, {(S)-6-[(R)-4-(4-tert-Butoxycarbonyl-piperazin-1-ylmethyl)-5-trifluoromethyl-indan-1-yloxy]-2,3-dihydro-benzofuran-3-yl}-acetic acid], the pEC50 was 7.70.
